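Cells were grown in 96-well plates and exposed to each compound for 48 hours at five concentrations; endpoints were interpolated linearly between bracketing concentrations, or set to the highest concentration if not reached. GI50: concentration for 50% inhibition of growth. TGI is the concentration that stops growth completely.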
Legend:
Assay in all cases: inhibition of tumour cell growth, NCI panel, 48 h
[1] = system: K-562 leukemia
[2] = system: MDA-MB-231 breast
[3] = system: A549 NSCLC
[4] = system: MALME-3M melanoma
[5] = system: NCI/ADR-RES ovarian
[6] = system: KM12 colon
[7] = system: NCI-H522 lung
[8] = system: BT-549 breast

For `C=C1C(=O)OC2CC(C)C(C(CC(C)=O)OC(C)=O)=CCC12` (stereo not drawn), the TGI [1] was 17.9 µM, the TGI [2] was 27.2 µM and the TGI [3] was greater than 76.2 µM. The TGI [4] was 3.97 µM, the TGI [5] was greater than 45 µM and the TGI [6] was 37.2 µM. For the same molecule, the TGI [7] was 3.27 µM and the TGI [8] was 15.2 µM.
`Nc1nn2cc(F)cnc2c1C(=O)Nc1cncc(F)c1N1CCC(C(=O)N2CCN(C3COC3)CC2)CC1` was tested, and the GI50 [1] was 0.281 µM, the TGI [1] was 2.74 µM and the GI50 [2] was 1.93 µM. The TGI [2] was 6.37 µM, the GI50 [3] was 0.266 µM and the TGI [3] was greater than 100 µM. The GI50 [4] was 0.608 µM, the TGI [4] was 12 µM and the GI50 [5] was 0.749 µM. It also gave a TGI [5] greater than 48.5 µM, a GI50 [6] of 0.369 µM and a TGI [6] greater than 100 µM. For the same molecule, the GI50 [7] was 0.427 µM, the TGI [7] was 3.05 µM and the GI50 [8] was 0.246 µM. The TGI [8] was 1.55 µM.
`CC1(C)C(C#N)C1C1=C(N2CCOCC2)[C@]2(C)C(OC(=O)c3ccccc3)CC[C@@H]2C1` (stereo partly drawn) showed a TGI [1] greater than 100 µM, a TGI [2] greater than 100 µM and a TGI [3] greater than 100 µM. It also gave a TGI [4] greater than 100 µM, a TGI [5] greater than 100 µM and a TGI [6] greater than 100 µM. The TGI [7] was greater than 100 µM and the TGI [8] was greater than 100 µM.
`N#Cc1c(N)nc(N2CCOCC2)c(C#N)c1-c1ccncc1` was tested, and the GI50 [1] was greater than 100 µM, the TGI [1] was greater than 100 µM and the GI50 [2] was 21.6 µM. For the same molecule, the TGI [2] was greater than 100 µM, the GI50 [3] was greater than 100 µM and the TGI [3] was greater than 100 µM. For the same molecule, the GI50 [4] was 9.04 µM, the TGI [4] was 98.1 µM and the GI50 [5] was greater than 100 µM. For the same molecule, the TGI [5] was greater than 100 µM, the GI50 [6] was greater than 100 µM and the TGI [6] was greater than 100 µM. The GI50 [7] was 22.7 µM, the TGI [7] was greater than 100 µM and the GI50 [8] was 95.8 µM. It also gave a TGI [8] greater than 100 µM.
For `COc1cccc(C2CC(C)(O)Oc3cc4c(cc32)OCO4)c1O` (stereo not drawn), the TGI [1] was greater than 53.6 µM, the TGI [2] was 67.7 µM and the TGI [3] was greater than 100 µM. For the same molecule, the TGI [4] was greater than 100 µM, the TGI [5] was 59.3 µM and the TGI [6] was 52.3 µM. It also gave a TGI [7] of 53.5 µM and a TGI [8] of 62.4 µM.
`N#Cc1c(NC(=O)NCc2ccccc2)sc2c1CCCCC2` gave a GI50 [1] of 0.371 µM, a TGI [1] greater than 100 µM and a GI50 [2] of 0.973 µM. It also gave a TGI [2] of 13.9 µM, a GI50 [3] of 0.626 µM and a TGI [3] greater than 100 µM. For the same molecule, the GI50 [4] was 0.524 µM, the TGI [4] was greater than 100 µM and the GI50 [5] was 0.42 µM. It also gave a TGI [5] of 27.1 µM, a GI50 [6] of 0.448 µM and a TGI [6] greater than 100 µM. It also gave a GI50 [7] of 0.601 µM, a TGI [7] of 25.3 µM and a GI50 [8] of 0.923 µM. For the same molecule, the TGI [8] was greater than 100 µM.
For `COc1cccc(CC(C)=C(c2ccc(OCCN(C)C)cc2)c2ccc(OCCN(C)C)cc2)c1`, the GI50 [1] was 0.614 µM, the TGI [1] was 1.77 µM and the GI50 [2] was 1.1 µM. For the same molecule, the TGI [2] was 4.69 µM, the GI50 [3] was 3.59 µM and the TGI [3] was 8.25 µM. It also gave a GI50 [4] of 0.564 µM, a TGI [4] of 1.05 µM and a GI50 [5] of 3.76 µM. For the same molecule, the TGI [5] was 8.32 µM, the GI50 [6] was 4.08 µM and the TGI [6] was 8.77 µM. It also gave a GI50 [7] of 2.86 µM, a TGI [7] of 7.95 µM and a GI50 [8] of 4.29 µM. For the same molecule, the TGI [8] was 8.88 µM.
For `C=C(Cl)C(=CCl)CCC(Br)C(C)(C)Cl` (mixture of isomers), the TGI [1] was greater than 10 µM, the TGI [2] was greater than 10 µM and the TGI [3] was greater than 10 µM. It also gave a TGI [4] greater than 10 µM, a TGI [5] greater than 10 µM and a TGI [6] greater than 10 µM. It also gave a TGI [7] greater than 10 µM and a TGI [8] greater than 10 µM.
`CNCc1ccccc1-c1csc([C@@H](C)Nc2nc(C)nc3cc(OC)c(OC)cc23)c1` was tested, and the GI50 [1] was 0.168 µM, the TGI [1] was 1.57 µM and the GI50 [2] was 1.85 µM. It also gave a TGI [2] of 3.78 µM, a GI50 [3] of 1.94 µM and a TGI [3] of 5.73 µM. For the same molecule, the GI50 [4] was 1.76 µM, the TGI [4] was 3.28 µM and the GI50 [5] was 2.01 µM. It also gave a TGI [5] of 4.68 µM, a GI50 [6] of 3.27 µM and a TGI [6] of 11.9 µM. It also gave a GI50 [7] of 1.54 µM, a TGI [7] of 3.64 µM and a GI50 [8] of 1.76 µM. The TGI [8] was 3.55 µM.
`O=C(Nc1ccc(Nc2ccncc2)cc1)c1ccc([N+](=O)[O-])cc1` was tested, and the GI50 [1] was 3.11 µM, the TGI [1] was greater than 28.2 µM and the GI50 [2] was 3.44 µM. The TGI [2] was 14.9 µM, the GI50 [3] was 10 µM and the TGI [3] was 33.1 µM. It also gave a GI50 [4] of 4.89 µM, a TGI [4] of 17.3 µM and a GI50 [5] of 14.2 µM. For the same molecule, the TGI [5] was greater than 62.5 µM, the GI50 [6] was 4.23 µM and the TGI [6] was 17.3 µM. It also gave a GI50 [7] of 12.5 µM, a TGI [7] of 34.6 µM and a GI50 [8] of 11.6 µM. For the same molecule, the TGI [8] was 28.2 µM.
`O=[N+]([O-])c1ccc2[nH]c(=S)[nH]c(=S)c2c1` was tested, and the TGI [1] was greater than 100 µM, the TGI [2] was greater than 100 µM and the TGI [3] was greater than 100 µM. The TGI [4] was greater than 100 µM, the TGI [5] was greater than 100 µM and the TGI [6] was greater than 100 µM. For the same molecule, the TGI [7] was greater than 100 µM.
With `CSC1=Nc2c(c(C)c(C)n2COC(CO)CO)C2=NC(=O)C(C)N12` (stereo not drawn) the GI50 [1] was greater than 100 µM, the TGI [1] was greater than 100 µM and the GI50 [2] was greater than 100 µM. It also gave a TGI [2] greater than 100 µM, a GI50 [3] greater than 100 µM and a TGI [3] greater than 100 µM. For the same molecule, the GI50 [4] was greater than 100 µM, the TGI [4] was greater than 100 µM and the GI50 [5] was greater than 100 µM. It also gave a TGI [5] greater than 100 µM, a GI50 [6] greater than 100 µM and a TGI [6] greater than 100 µM. It also gave a GI50 [7] greater than 100 µM, a TGI [7] greater than 100 µM and a GI50 [8] greater than 100 µM. The TGI [8] was greater than 100 µM.
In the case of `C/C=C/C(CC(O)(C(F)(F)F)C(F)(F)F)=N/NC(N)=S`, the TGI [1] was greater than 10 µM, the TGI [2] was greater than 10 µM and the TGI [3] was greater than 10 µM. It also gave a TGI [4] greater than 10 µM, a TGI [5] greater than 10 µM and a TGI [6] greater than 10 µM. It also gave a TGI [7] greater than 10 µM and a TGI [8] greater than 10 µM.
Molecule `Cc1cc(C)c2c(n1)sc1c(Nc3ccc(Cl)cc3)ncnc12` has a GI50 [1] of 0.0154 µM, a TGI [1] greater than 100 µM and a GI50 [3] of less than 0.01 µM. It also gave a TGI [3] greater than 100 µM, a GI50 [4] of 19.3 µM and a TGI [4] greater than 100 µM. The GI50 [5] was less than 0.01 µM, the TGI [5] was greater than 100 µM and the GI50 [6] was 0.139 µM. The TGI [6] was greater than 100 µM, the GI50 [7] was less than 0.01 µM and the TGI [7] was greater than 100 µM. It also gave a GI50 [8] of less than 0.0161 µM and a TGI [8] greater than 100 µM.
`CCOC(=O)C(C#N)C1=CC(=O)C(=O)c2ccc(OC)cc21` (stereo not drawn) was tested, and the TGI [1] was greater than 100 µM, the TGI [2] was 29.1 µM and the TGI [3] was 41 µM. For the same molecule, the TGI [4] was 31 µM, the TGI [5] was 51.3 µM and the TGI [6] was 41.3 µM. The TGI [7] was 18.7 µM.
For `CC1(C)CC(=O)C(C=NC(=S)c2ccccc2)=C(O)C1`, the TGI [2] was greater than 100 µM, the TGI [3] was greater than 100 µM and the TGI [5] was greater than 100 µM. The TGI [6] was greater than 100 µM, the TGI [7] was greater than 100 µM and the TGI [8] was greater than 100 µM.
`COc1ccc(/C=C\[N+](=O)[O-])cc1OC` showed a GI50 [1] of 2.36 µM, a TGI [1] greater than 100 µM and a GI50 [2] of 3.73 µM. It also gave a TGI [2] of 13.1 µM, a GI50 [3] of 1.94 µM and a TGI [3] of 4.97 µM. For the same molecule, the GI50 [4] was 22.6 µM, the TGI [4] was 43.5 µM and the GI50 [5] was 7.08 µM. For the same molecule, the TGI [5] was 36.8 µM, the GI50 [6] was 2.73 µM and the TGI [6] was 7.54 µM. It also gave a GI50 [8] of 2.26 µM and a TGI [8] of 5.21 µM.
In the case of `CC(=O)CCn1c(=S)sc2ccccc21`, the TGI [2] was greater than 100 µM, the TGI [3] was greater than 100 µM and the TGI [5] was greater than 100 µM. It also gave a TGI [6] greater than 100 µM, a TGI [7] greater than 100 µM and a TGI [8] greater than 100 µM.
`CO/N=C(\C(=O)OC(=NC1CCCCC1)NC1CCCCC1)c1csc(NC(c2ccccc2)(c2ccccc2)c2ccccc2)n1` gave a TGI [1] greater than 10 µM, a TGI [3] greater than 10 µM and a TGI [4] greater than 10 µM. For the same molecule, the TGI [5] was greater than 10 µM, the TGI [6] was greater than 10 µM and the TGI [7] was greater than 10 µM. It also gave a TGI [8] greater than 10 µM.

Source: PubChem BioAssay (NCI)
